Reference: patent US8242275B2, “Bicyclic pyrazole compounds as antibacterial agents” (Janssen Pharmaceutica NV, priority 2005, dated 2012)
Values after ≈ are worked out from the molar mass of the structure shown. Where two headings read alike, the source gives them in different places.

How the values were obtained:
[1] = target: T1, E. coli topoisomerase IV (Escherichia coli, UniProt P0AFI2+P20083); experiment: Topoisomerase IV inhibition assay (relaxation); assay type: biochemical; settings: E. coli topoisomerase IV relaxation, visual inspection of gels; read-out: Topoisomerase IV IC50 (converted)
T1 construct: purchased John Innes Enterprises Ltd. (John Innes Centre, UK)
Experimental: Inhibition of the relaxation activity of E. coli topoisomerase IV was determined using enzyme, buffers and substrates received from John Innes Enterprises Ltd. (John Innes Centre, UK). The reactions were performed according to the manufacturer's directions, with the following modifications.
DNA relaxation reactions were carried out in a total reaction volume of 20 μL, containing 300 ng of supercoiled pBR322, 40 mM HEPES-KOH (pH 7.6), 100 mM potassium glutamate, 10 mM Mg(OAc)2, 10 mM DTT, 4 μg/mL tRNA, 2 mM ATP, and 50 μg/mL BSA. Compounds, diluted in 10% DMSO, were added to the reaction mixture to reach a final concentration of 0.5% DMSO. Enzyme was diluted to 0.45 unit/μL in a solution of 40 mM HEPES-KOH (pH 7.6), 150 mM potassium glutamate, 1 mM DTT, 1 mM EDTA, and 40% glycerol. Diluted enzyme (0.9 unit) was added to each reaction.
The reactions were incubated at 37° C. for 45 min. The reactions were then cooled to 0° C. followed by addition of 3 μL of 40% glycerol, 100 mM Tris-HCl (pH 7.5), 50 mM EDTA, 0.5% SDS and 0.1% bromophenol blue. Samples were separated on 1.0% agarose gels. Gels were stained with Ethidium bromide and photographed with a Stratagene Eagle Eye II.

[2] = tested on: CipR MRSA OC3946; experiment: Resistant strains assay (broth microdilution MIC); assay type: cell-based; settings: Staphylococcus aureus; CipR MRSA OC3946; read-out: MIC, Column E
Experimental: (§1) Compounds of the present invention were tested for activity against susceptible and resistant bacterial strains in vitro, and activity was compared to known anti-bacterial agents. Testing protocols followed NCCLS methodology for broth microdilution assays. MIC values in μg/mL are presented in Table 3 for the following strains: Column A: MSSA ATCC13709 (Smith); Column B: MSSA ATCC 29213; Column C: MRSA OC3726 (COL); Column D: MRSA OC2878.
MIC values in μg/mL are presented in Table 4 for the following strains: Column E: CipR MRSA OC3946; Column F: CipR MRSA OC4159; Column G: CipR MRSA OC4222; Column H: CipR MRSA OC5273.

[3] = tested on: CipR MRSA OC4222; experiment: Resistant strains assay (broth microdilution MIC); assay type: cell-based; settings: Staphylococcus aureus; CipR MRSA OC4222; read-out: MIC, Column G
Text: (§2) Testing protocols followed NCCLS methodology for broth microdilution assays.

[4] = tested on: CipR MRSA OC5273; experiment: Resistant strains assay (broth microdilution MIC); assay type: cell-based; settings: Staphylococcus aureus, read-out: MIC, Column H
Text: as §2

[5] = tested on: CipR MRSA OC4159; experiment: Resistant strains assay (broth microdilution MIC); assay type: cell-based; settings: Staphylococcus aureus, read-out: MIC, Column F
Text: as §2

[6] = tested on: MRSA OC3726 (COL); experiment: Resistant strains assay (broth microdilution MIC); assay type: cell-based; settings: Staphylococcus aureus, read-out: MIC, Column C
Text: as §2

[7] = tested on: MRSA OC2878; experiment: Resistant strains assay (broth microdilution MIC); assay type: cell-based; settings: Staphylococcus aureus, read-out: MIC, Column D
Text: as §2

[8] = tested on: MSSA ATCC13709 (Smith); experiment: Resistant strains assay (broth microdilution MIC); assay type: cell-based; settings: Staphylococcus aureus
Experimental: as §1

[9] = tested on: MSSA ATCC 29213; experiment: Resistant strains assay (broth microdilution MIC); assay type: cell-based; settings: Staphylococcus aureus, read-out: MIC, Column B
Experimental: as §1

[10] = tested on: S. pneumoniae ATCC49619; experiment: In vitro antibacterial activity (MIC assay), broth microdilution; assay type: cell-based; settings: Streptococcus pneumoniae, ATCC49619; read-out: S. pneumoniae ATCC49619 MIC
Method in brief: (§3)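 Bacteria at roughly 5×10^5 CFU/mL final were grown 16–24 h at 35° C in wells holding 2-fold serial dilutions (11 points) of compound prepared in 100% DMSO, following NCCLS M7-A5. MIC, in μg/mL, is the concentration that stops visible growth relative to untreated wells.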

[11] = tested on: E. coli KL-16 (GSC strain 4245); experiment: as above; assay type: cell-based; settings: Escherichia coli
Method in brief: as §3

[12] = tested on: S. aureus ATCC13709; experiment: as above; assay type: cell-based; settings: Staphylococcus aureus, ATCC13709; read-out: S. aureus ATCC13709 MIC
Method in brief: as §3

[13] = target: T2, E. coli DNA gyrase (Escherichia coli, UniProt P0AES4+P0AES6); experiment: DNA gyrase inhibition assay (supercoiling); assay type: biochemical; settings: E. coli DNA gyrase supercoiling, visual inspection of gels; read-out: DNA Gyrase IC50 (converted)
T2 construct: purchased John Innes Enterprises Ltd. (John Innes Centre, UK)
Method in brief: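 Agarose-gel (1.0%, ethidium-stained) readout of supercoiled versus relaxed pBR322 after 30 min at 37° C. Each reaction held 250 ng DNA, 0.2 unit enzyme, 1 mM ATP, 4 mM MgCl2, 24 mM KCl in 35 mM Tris-HCl pH 7.5, and compound at 0.5% DMSO final.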

T2 sequence (P0AES4 whole entry, one chain of several): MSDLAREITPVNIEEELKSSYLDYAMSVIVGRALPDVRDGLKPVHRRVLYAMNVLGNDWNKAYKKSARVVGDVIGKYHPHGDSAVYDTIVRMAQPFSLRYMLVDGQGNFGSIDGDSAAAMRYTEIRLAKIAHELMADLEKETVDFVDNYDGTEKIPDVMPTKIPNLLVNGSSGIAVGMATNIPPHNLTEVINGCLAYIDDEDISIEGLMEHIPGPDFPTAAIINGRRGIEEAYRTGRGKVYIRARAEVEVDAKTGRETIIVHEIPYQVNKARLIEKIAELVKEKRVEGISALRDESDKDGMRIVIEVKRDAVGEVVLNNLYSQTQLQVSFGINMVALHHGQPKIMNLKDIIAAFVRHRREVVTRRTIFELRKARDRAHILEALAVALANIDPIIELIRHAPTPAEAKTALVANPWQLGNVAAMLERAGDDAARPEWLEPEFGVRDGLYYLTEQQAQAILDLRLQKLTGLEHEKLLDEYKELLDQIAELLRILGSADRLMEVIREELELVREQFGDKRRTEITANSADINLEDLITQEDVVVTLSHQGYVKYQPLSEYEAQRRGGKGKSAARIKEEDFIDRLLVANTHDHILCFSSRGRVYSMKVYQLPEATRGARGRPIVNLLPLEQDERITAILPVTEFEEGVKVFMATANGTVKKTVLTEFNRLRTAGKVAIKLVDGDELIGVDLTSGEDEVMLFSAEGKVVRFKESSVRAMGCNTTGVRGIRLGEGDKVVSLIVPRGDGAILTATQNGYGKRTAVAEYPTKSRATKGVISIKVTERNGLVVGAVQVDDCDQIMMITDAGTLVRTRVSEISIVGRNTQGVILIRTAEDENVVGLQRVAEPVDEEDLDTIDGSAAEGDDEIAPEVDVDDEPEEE
T1 sequence (P0AFI2 whole entry): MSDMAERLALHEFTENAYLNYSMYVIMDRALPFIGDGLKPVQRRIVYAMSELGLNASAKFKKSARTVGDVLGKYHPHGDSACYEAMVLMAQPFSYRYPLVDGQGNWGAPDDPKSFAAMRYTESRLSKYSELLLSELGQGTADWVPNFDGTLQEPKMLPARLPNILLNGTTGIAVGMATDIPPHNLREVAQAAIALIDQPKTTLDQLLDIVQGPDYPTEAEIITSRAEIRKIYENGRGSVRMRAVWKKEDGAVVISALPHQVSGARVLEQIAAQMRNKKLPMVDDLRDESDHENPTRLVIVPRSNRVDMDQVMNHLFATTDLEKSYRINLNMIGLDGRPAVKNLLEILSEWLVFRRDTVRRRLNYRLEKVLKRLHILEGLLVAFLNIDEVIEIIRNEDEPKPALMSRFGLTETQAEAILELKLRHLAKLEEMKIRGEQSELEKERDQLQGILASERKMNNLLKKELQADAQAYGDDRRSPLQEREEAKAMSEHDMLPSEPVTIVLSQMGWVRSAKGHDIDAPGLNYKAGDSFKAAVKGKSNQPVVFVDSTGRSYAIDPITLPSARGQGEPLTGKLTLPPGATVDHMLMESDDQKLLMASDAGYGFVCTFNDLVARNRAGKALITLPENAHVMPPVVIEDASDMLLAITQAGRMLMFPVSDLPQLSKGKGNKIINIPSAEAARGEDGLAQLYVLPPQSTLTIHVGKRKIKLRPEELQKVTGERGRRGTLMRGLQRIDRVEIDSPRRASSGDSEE
T1 sequence (P20083 whole entry): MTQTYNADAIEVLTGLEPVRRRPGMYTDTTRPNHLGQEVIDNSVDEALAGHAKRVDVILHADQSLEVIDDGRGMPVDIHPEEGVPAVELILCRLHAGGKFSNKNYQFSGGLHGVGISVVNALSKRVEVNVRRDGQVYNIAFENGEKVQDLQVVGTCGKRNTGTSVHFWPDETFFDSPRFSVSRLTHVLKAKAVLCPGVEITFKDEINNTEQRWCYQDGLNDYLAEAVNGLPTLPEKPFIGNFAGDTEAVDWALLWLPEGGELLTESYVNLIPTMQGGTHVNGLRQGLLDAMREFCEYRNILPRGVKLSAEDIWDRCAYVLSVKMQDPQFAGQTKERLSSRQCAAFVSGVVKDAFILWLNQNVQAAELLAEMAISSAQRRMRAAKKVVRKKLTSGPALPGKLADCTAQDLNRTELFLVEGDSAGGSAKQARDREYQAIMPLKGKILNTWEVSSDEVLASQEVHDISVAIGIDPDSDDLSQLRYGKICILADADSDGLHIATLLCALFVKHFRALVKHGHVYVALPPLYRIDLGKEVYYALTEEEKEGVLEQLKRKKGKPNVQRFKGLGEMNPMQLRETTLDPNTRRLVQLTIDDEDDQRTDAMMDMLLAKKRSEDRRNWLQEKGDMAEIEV

SMILES	IC50 [1]	MIC [2]	MIC [3]	MIC [4]	MIC [5]	MIC ([6]; MRSA OC3726 (COL))	MIC ([7]; MRSA OC2878)	MIC [8]	MIC [9]	MIC [10]	MIC [11]	MIC [12]	MIC ([6]; MRSA)	MIC ([7]; MRSA)	IC50 [13]
COc1ccc2nccc(-n3cc4c(n3)CCC(NC(=O)c3cc5c(cc3F)SCC(=O)N5)C4)c2c1 (centres unmarked) [Example 18, 7-Fluoro-3-oxo-3,4-dihydro-2H-benzo[1,4]thiazine-6-carboxylic acid [2-(6-methoxy-quinolin-4-yl)-4,5,6,7-tetrahydro-2H-indazol-5-yl]-amide]	0.496 µM	0.015 µg/mL (≈ 0.0298 µM)	0.031 µg/mL (≈ 0.0616 µM)	0.062 µg/mL (≈ 0.123 µM)	0.031 µg/mL (≈ 0.0616 µM)	0.062 µg/mL (≈ 0.123 µM)	0.062 µg/mL (≈ 0.123 µM)	0.031 µg/mL (≈ 0.0616 µM)	0.25 µg/mL (≈ 0.496 µM)	1 µg/mL (≈ 1.99 µM)	4 µg/mL (≈ 7.94 µM)	0.03 µg/mL (≈ 0.0596 µM)			
COc1ccc2nccc(-n3cc4c(n3)CCC(NC(=O)c3ccc5c(c3)NC(=O)CS5)C4)c2c1 (centres unmarked) [Example 17, 3-Oxo-3,4-dihydro-2H-benzo[1,4]thiazine-6-carboxylic acid [2-(6-methoxy-quinolin-4-yl)-4,5,6,7-tetrahydro-2H-indazol-5-yl]-amide]	0.257 µM	0.015 µg/mL (≈ 0.0309 µM)	0.062 µg/mL (≈ 0.128 µM)	0.25 µg/mL (≈ 0.515 µM)	0.031 µg/mL (≈ 0.0638 µM)			0.25 µg/mL (≈ 0.515 µM)	0.062 µg/mL (≈ 0.128 µM)	2 µg/mL (≈ 4.12 µM)	4 µg/mL (≈ 8.24 µM)	0.25 µg/mL (≈ 0.515 µM)	0.125 µg/mL (≈ 0.257 µM)	0.125 µg/mL (≈ 0.257 µM)	0.247 µM
COc1ccc2nccc(-n3cc4c(n3)CCC(NC(=O)c3c(F)cc5c(c3F)NC(=O)CS5)C4)c2n1 (centres unmarked) [Example 109, 5,7-Difluoro-3-oxo-3,4-dihydro-2H-benzo[1,4]thiazine-6-carboxylic acid [2-(6-methoxy-[1,5]naphthyridin-4-yl)-4,5,6,7-tetrahydro-2H-indazol-5-yl]-amide]			0.03 µg/mL (≈ 0.0574 µM)							4 µg/mL (≈ 7.65 µM)	> 128 µg/mL	0.125 µg/mL (≈ 0.239 µM)			1.91 µM
COc1ccc2nccc(-n3cc4c(n3)CCC(NCc3ccc5c(c3)NC(=O)CS5)C4)c2n1 (centres unmarked) [Example 41, 6-{[2-(6-Methoxy-[1,5]naphthyridin-4-yl)-4,5,6,7-tetrahydro-2H-indazol-5-ylamino]-methyl}-4H-benzo[1,4]thiazin-3-one]	0.0339 µM	0.25 µg/mL (≈ 0.529 µM)	0.25 µg/mL (≈ 0.529 µM)	0.5 µg/mL (≈ 1.06 µM)	0.25 µg/mL (≈ 0.529 µM)	1 µg/mL (≈ 2.12 µM)	0.5 µg/mL (≈ 1.06 µM)	0.25 µg/mL (≈ 0.529 µM)	0.25 µg/mL (≈ 0.529 µM)	2 µg/mL (≈ 4.23 µM)	2 µg/mL (≈ 4.23 µM)	0.25 µg/mL (≈ 0.529 µM)			0.127 µM
CCn1cc(C(=O)O)c(=O)c2cc(F)c(N3CCNCC3)cc21 [Norfloxacin, reference compound]		128 µg/mL (≈ 401 µM)	> 128 µg/mL	> 128 µg/mL	> 128 µg/mL	2 µg/mL (≈ 6.26 µM)	1 µg/mL (≈ 3.13 µM)	1 µg/mL (≈ 3.13 µM)	2 µg/mL (≈ 6.26 µM)						
COc1ccc2nccc(-n3cc4c(n3)CCC(NC/C=C/c3ccccc3)C4)c2c1 (centres unmarked) [Example 55, [2-(6-Methoxy-quinolin-4-yl)-4,5,6,7-tetrahydro-2H-indazol-5-yl]-(3-phenyl-allyl)-amine]		0.5 µg/mL (≈ 1.22 µM)	0.25 µg/mL (≈ 0.609 µM)	1 µg/mL (≈ 2.44 µM)	0.5 µg/mL (≈ 1.22 µM)	1 µg/mL (≈ 2.44 µM)	0.5 µg/mL (≈ 1.22 µM)	0.5 µg/mL (≈ 1.22 µM)	2 µg/mL (≈ 4.87 µM)	1 µg/mL (≈ 2.44 µM)	64 µg/mL (≈ 156 µM)	0.5 µg/mL (≈ 1.22 µM)			
C[C@@H]1CN(c2c(F)c(N)c3c(=O)c(C(=O)O)cn(C4CC4)c3c2F)C[C@H](C)N1 [Sparfloxacin, reference compound]		4 µg/mL (≈ 10.2 µM)	8 µg/mL (≈ 20.4 µM)	16 µg/mL (≈ 40.8 µM)	16 µg/mL (≈ 40.8 µM)	0.125 µg/mL (≈ 0.319 µM)	0.062 µg/mL (≈ 0.158 µM)	0.062 µg/mL (≈ 0.158 µM)	0.062 µg/mL (≈ 0.158 µM)						
O=C(O)c1cn(C2CC2)c2cc(N3CCNCC3)c(F)cc2c1=O [Ciprofloxacin, reference compound]		16 µg/mL (≈ 48.3 µM)						0.25 to 0.5 µg/mL (≈ 0.754 to 1.51 µM)	0.25 to 0.5 µg/mL (≈ 0.754 to 1.51 µM)						
COc1ccc2nccc(-n3cc4c(n3)CCC(NC(=O)c3c(F)cc5c(c3F)NC(=O)CS5)C4)c2c1 (centres unmarked) [Example 108, 5,7-Difluoro-3-oxo-3,4-dihydro-2H-benzo[1,4]thiazine-6-carboxylic acid [2-(6-methoxy-quinolin-4-yl)-4,5,6,7-tetrahydro-2H-indazol-5-yl]-amide]			0.06 µg/mL (≈ 0.115 µM)							1 µg/mL (≈ 1.92 µM)	8 µg/mL (≈ 15.3 µM)	0.125 µg/mL (≈ 0.24 µM)			1.92 µM
COc1ccc2nccc(-n3cc4c(n3)CCC(NC(=O)c3cc5c(cc3C)SCC(=O)N5)C4)c2c1 (centres unmarked) [Example 131, 7-Methyl-3-oxo-3,4-dihydro-2H-benzo[1,4]thiazine-6-carboxylic acid [2-(6-methoxy-quinolin-4-yl)-4,5,6,7-tetrahydro-2H-indazol-5-yl]-amide]			0.5 µg/mL (≈ 1 µM)							16 µg/mL (≈ 32 µM)	8 µg/mL (≈ 16 µM)	0.5 µg/mL (≈ 1 µM)			
COc1ccc2nccc(-n3cc4c(n3)CCC(NCc3ccc5c(n3)NC(=O)CO5)C4)c2n1 (centres unmarked) [Example 44, 6-{[2-(6-Methoxy-[1,5]naphthyridin-4-yl)-4,5,6,7-tetrahydro-2H-indazol-5-ylamino]-methyl}-4H-pyrido[3,2-b][1,4]oxazin-3-one]	0.035 µM									2 µg/mL (≈ 4.37 µM)	2 µg/mL (≈ 4.37 µM)	0.5 µg/mL (≈ 1.09 µM)			< 0.273 µM
COc1ccc2nccc(-n3cc4c(n3)CCC(NC(=O)c3ccc5c(c3)NC(=O)CO5)C4)c2n1 (centres unmarked) [Example 117, 3-Oxo-3,4-dihydro-2H-benzo[1,4]oxazine-6-carboxylic acid [2-(6-methoxy-[1,5]naphthyridin-4-yl)-4,5,6,7-tetrahydro-2H-indazol-5-yl]-amide]	0.531 µM									8 µg/mL (≈ 17 µM)	4 µg/mL (≈ 8.5 µM)	0.125 µg/mL (≈ 0.266 µM)			2.13 µM
